Measured values from PubChem BioAssay AID1963837 (Molecular Pharmacology Branch, DTP, NCI, 2024).

system: 843126-344-R-J1-PDC complex spheroid viability; test: Anticancer human tumor 843126-344-R-J1-PDC patient-derived melanoma cell line growth inhibition [POLQ]; details: second compound 0.316 µM; first compound 0.316 µM; hits give low values
Summary of the method: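 Growth inhibition in 3D: complex spheroids (tumor PDC, HUVEC, MSC) treated with POLQ inhibitor combinations; where Cmax unknown, highest tested concentration 10 microM, except SN-38 at 1 microM.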
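Further: spheroids exposed to drugs for seven days before readout.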

Question: Which viability, T/C does the source give for `COc1cc(C2c3cc4c(cc3C(OC3OC5COC(C)OC5C(O)C3O)C3COC(=O)C23)OCO4)cc(OC)c1O` (stereo unspecified) + Cc1cccc(N(C)C(=O)C2C(O)CCN2c2nc(C)cc(C(F)(F)F)c2C#N)c1 here?
Answer: 92.7%

Question: Which viability, T/C does the source give for `COc1cccc(OCCCN)c1-c1cc(Nc2cnc(C#N)cn2)n[nH]1` + COC1C(OC(N)=O)C(O)C(Oc2ccc3c(O)c(NC(=O)c4ccc(O)c(CC=C(C)C)c4)c(=O)oc3c2C)OC1(C)C here?
Answer: 39.8%

Question: For `CC1COCCN1c1cc(C2(S(C)(=N)=O)CC2)nc(-c2ccnc3[nH]ccc23)n1` (stereo unspecified) + COC1C(OC(N)=O)C(O)C(Oc2ccc3c(O)c(NC(=O)c4ccc(O)c(CC=C(C)C)c4)c(=O)oc3c2C)OC1(C)C, which viability, T/C is on record?
Answer: 81.2%

Question: `CC1COCCN1c1cc(-c2ccnn2C)c2ccnc(-c3ccn[nH]3)c2n1` (stereo unspecified) + COC1C(OC(N)=O)C(O)C(Oc2ccc3c(O)c(NC(=O)c4ccc(O)c(CC=C(C)C)c4)c(=O)oc3c2C)OC1(C)C was tested. Which viability, T/C did it give?
Answer: 60.4%

Question: With `COc1ccc([C@@H](O)c2cc(-c3ncnc4cc(N5CCOCC5)ccc34)c(F)cc2Cl)nn1` + Nc1ccc(C#CCN(C(=O)Cc2ncc(C(F)(F)F)cc2C(F)(F)F)c2ccc(F)cc2)nn1 as the compound, how does the viability, T/C read?
Answer: 87%

same assay, conditions: second compound 0.316 µM; first compound 1 µM; hits give low values

Question: With `COc1cc(C2c3cc4c(cc3C(OC3OC5COC(C)OC5C(O)C3O)C3COC(=O)C23)OCO4)cc(OC)c1O` (stereo unspecified) + Cc1cccc(N(C)C(=O)C2C(O)CCN2c2nc(C)cc(C(F)(F)F)c2C#N)c1 as the compound, how does the viability, T/C read?
Answer: 71.8%

Question: With `COc1cccc(OCCCN)c1-c1cc(Nc2cnc(C#N)cn2)n[nH]1` + COC1C(OC(N)=O)C(O)C(Oc2ccc3c(O)c(NC(=O)c4ccc(O)c(CC=C(C)C)c4)c(=O)oc3c2C)OC1(C)C as the compound, how does the viability, T/C read?
Answer: 38.6%

Question: For `CC1COCCN1c1cc(C2(S(C)(=N)=O)CC2)nc(-c2ccnc3[nH]ccc23)n1` (stereo unspecified) + COC1C(OC(N)=O)C(O)C(Oc2ccc3c(O)c(NC(=O)c4ccc(O)c(CC=C(C)C)c4)c(=O)oc3c2C)OC1(C)C, which viability, T/C is on record?
Answer: 89%

Question: How did the viability, T/C turn out when `CC1COCCN1c1cc(-c2ccnn2C)c2ccnc(-c3ccn[nH]3)c2n1` (stereo unspecified) + COC1C(OC(N)=O)C(O)C(Oc2ccc3c(O)c(NC(=O)c4ccc(O)c(CC=C(C)C)c4)c(=O)oc3c2C)OC1(C)C was run?
Answer: 46.2%

Question: Which viability, T/C does the source give for `COc1ccc([C@@H](O)c2cc(-c3ncnc4cc(N5CCOCC5)ccc34)c(F)cc2Cl)nn1` + Nc1ccc(C#CCN(C(=O)Cc2ncc(C(F)(F)F)cc2C(F)(F)F)c2ccc(F)cc2)nn1 here?
Answer: 85.1%

same assay, conditions: second compound 0.316 µM; first compound 3.16 µM; hits give low values

Question: Which viability, T/C does the source give for `COc1cc(C2c3cc4c(cc3C(OC3OC5COC(C)OC5C(O)C3O)C3COC(=O)C23)OCO4)cc(OC)c1O` (stereo unspecified) + Cc1cccc(N(C)C(=O)C2C(O)CCN2c2nc(C)cc(C(F)(F)F)c2C#N)c1 here?
Answer: 61.2%

Question: How did the viability, T/C turn out when `CC1COCCN1c1cc(C2(S(C)(=N)=O)CC2)nc(-c2ccnc3[nH]ccc23)n1` (stereo unspecified) + COC1C(OC(N)=O)C(O)C(Oc2ccc3c(O)c(NC(=O)c4ccc(O)c(CC=C(C)C)c4)c(=O)oc3c2C)OC1(C)C was run?
Answer: 56.9%

Question: For `CC1COCCN1c1cc(-c2ccnn2C)c2ccnc(-c3ccn[nH]3)c2n1` (stereo unspecified) + COC1C(OC(N)=O)C(O)C(Oc2ccc3c(O)c(NC(=O)c4ccc(O)c(CC=C(C)C)c4)c(=O)oc3c2C)OC1(C)C, which viability, T/C is on record?
Answer: 38.1%

Question: How did the viability, T/C turn out when `COc1ccc([C@@H](O)c2cc(-c3ncnc4cc(N5CCOCC5)ccc34)c(F)cc2Cl)nn1` + Nc1ccc(C#CCN(C(=O)Cc2ncc(C(F)(F)F)cc2C(F)(F)F)c2ccc(F)cc2)nn1 was run?
Answer: 79.5%

same assay, conditions: second compound 0.316 µM; first compound 10 µM; hits give low values

Question: Which viability, T/C does the source give for `COc1cc(C2c3cc4c(cc3C(OC3OC5COC(C)OC5C(O)C3O)C3COC(=O)C23)OCO4)cc(OC)c1O` (stereo unspecified) + Cc1cccc(N(C)C(=O)C2C(O)CCN2c2nc(C)cc(C(F)(F)F)c2C#N)c1 here?
Answer: 42.1%

Question: For `CC1COCCN1c1cc(C2(S(C)(=N)=O)CC2)nc(-c2ccnc3[nH]ccc23)n1` (stereo unspecified) + COC1C(OC(N)=O)C(O)C(Oc2ccc3c(O)c(NC(=O)c4ccc(O)c(CC=C(C)C)c4)c(=O)oc3c2C)OC1(C)C, which viability, T/C is on record?
Answer: 53.5%

Question: Which viability, T/C does the source give for `CC1COCCN1c1cc(-c2ccnn2C)c2ccnc(-c3ccn[nH]3)c2n1` (stereo unspecified) + COC1C(OC(N)=O)C(O)C(Oc2ccc3c(O)c(NC(=O)c4ccc(O)c(CC=C(C)C)c4)c(=O)oc3c2C)OC1(C)C here?
Answer: 23.7%

Question: `COc1ccc([C@@H](O)c2cc(-c3ncnc4cc(N5CCOCC5)ccc34)c(F)cc2Cl)nn1` + Nc1ccc(C#CCN(C(=O)Cc2ncc(C(F)(F)F)cc2C(F)(F)F)c2ccc(F)cc2)nn1 was tested. Which viability, T/C did it give?
Answer: 80.7%

same assay, conditions: second compound 1 µM; first compound 0.000316 µM; hits give low values

Question: Which viability, T/C does the source give for `Cn1ncnc1[C@H]1c2n[nH]c(=O)c3cc(F)cc(c23)N[C@@H]1c1ccc(F)cc1` + COC1C(OC(N)=O)C(O)C(Oc2ccc3c(O)c(NC(=O)c4ccc(O)c(CC=C(C)C)c4)c(=O)oc3c2C)OC1(C)C here?
Answer: 89.7%

same assay, conditions: second compound 1 µM; first compound 0.001 µM; hits give low values

Question: `Cn1ncnc1[C@H]1c2n[nH]c(=O)c3cc(F)cc(c23)N[C@@H]1c1ccc(F)cc1` + COC1C(OC(N)=O)C(O)C(Oc2ccc3c(O)c(NC(=O)c4ccc(O)c(CC=C(C)C)c4)c(=O)oc3c2C)OC1(C)C was tested. Which viability, T/C did it give?
Answer: 106%

same assay, conditions: second compound 1 µM; first compound 0.00316 µM; hits give low values

Question: With `COc1cccc(OCCCN)c1-c1cc(Nc2cnc(C#N)cn2)n[nH]1` + COC1C(OC(N)=O)C(O)C(Oc2ccc3c(O)c(NC(=O)c4ccc(O)c(CC=C(C)C)c4)c(=O)oc3c2C)OC1(C)C as the compound, how does the viability, T/C read?
Answer: 96%

Question: For `Cn1ncnc1[C@H]1c2n[nH]c(=O)c3cc(F)cc(c23)N[C@@H]1c1ccc(F)cc1` + COC1C(OC(N)=O)C(O)C(Oc2ccc3c(O)c(NC(=O)c4ccc(O)c(CC=C(C)C)c4)c(=O)oc3c2C)OC1(C)C, which viability, T/C is on record?
Answer: 105%

same assay, conditions: second compound 1 µM; first compound 0.01 µM; hits give low values

Question: Which viability, T/C does the source give for `COc1cccc(OCCCN)c1-c1cc(Nc2cnc(C#N)cn2)n[nH]1` + COC1C(OC(N)=O)C(O)C(Oc2ccc3c(O)c(NC(=O)c4ccc(O)c(CC=C(C)C)c4)c(=O)oc3c2C)OC1(C)C here?
Answer: 76.9%

Question: `Cn1ncnc1[C@H]1c2n[nH]c(=O)c3cc(F)cc(c23)N[C@@H]1c1ccc(F)cc1` + COC1C(OC(N)=O)C(O)C(Oc2ccc3c(O)c(NC(=O)c4ccc(O)c(CC=C(C)C)c4)c(=O)oc3c2C)OC1(C)C was tested. Which viability, T/C did it give?
Answer: 84.3%

same assay, conditions: second compound 1 µM; first compound 0.0316 µM; hits give low values

Question: How did the viability, T/C turn out when `COc1cc(C2c3cc4c(cc3C(OC3OC5COC(C)OC5C(O)C3O)C3COC(=O)C23)OCO4)cc(OC)c1O` (stereo unspecified) + Cc1cccc(N(C)C(=O)C2C(O)CCN2c2nc(C)cc(C(F)(F)F)c2C#N)c1 was run?
Answer: 86.1%

Question: `COc1cccc(OCCCN)c1-c1cc(Nc2cnc(C#N)cn2)n[nH]1` + COC1C(OC(N)=O)C(O)C(Oc2ccc3c(O)c(NC(=O)c4ccc(O)c(CC=C(C)C)c4)c(=O)oc3c2C)OC1(C)C was tested. Which viability, T/C did it give?
Answer: 76%

Question: Which viability, T/C does the source give for `CC1COCCN1c1cc(C2(S(C)(=N)=O)CC2)nc(-c2ccnc3[nH]ccc23)n1` (stereo unspecified) + COC1C(OC(N)=O)C(O)C(Oc2ccc3c(O)c(NC(=O)c4ccc(O)c(CC=C(C)C)c4)c(=O)oc3c2C)OC1(C)C here?
Answer: 84.6%

Question: `Cn1ncnc1[C@H]1c2n[nH]c(=O)c3cc(F)cc(c23)N[C@@H]1c1ccc(F)cc1` + COC1C(OC(N)=O)C(O)C(Oc2ccc3c(O)c(NC(=O)c4ccc(O)c(CC=C(C)C)c4)c(=O)oc3c2C)OC1(C)C was tested. Which viability, T/C did it give?
Answer: 118%

Question: How did the viability, T/C turn out when `CC1COCCN1c1cc(-c2ccnn2C)c2ccnc(-c3ccn[nH]3)c2n1` (stereo unspecified) + COC1C(OC(N)=O)C(O)C(Oc2ccc3c(O)c(NC(=O)c4ccc(O)c(CC=C(C)C)c4)c(=O)oc3c2C)OC1(C)C was run?
Answer: 65.7%

Question: `COc1ccc([C@@H](O)c2cc(-c3ncnc4cc(N5CCOCC5)ccc34)c(F)cc2Cl)nn1` + Nc1ccc(C#CCN(C(=O)Cc2ncc(C(F)(F)F)cc2C(F)(F)F)c2ccc(F)cc2)nn1 was tested. Which viability, T/C did it give?
Answer: 88.1%

same assay, conditions: second compound 1 µM; first compound 0.1 µM; hits give low values

Question: `COc1cc(C2c3cc4c(cc3C(OC3OC5COC(C)OC5C(O)C3O)C3COC(=O)C23)OCO4)cc(OC)c1O` (stereo unspecified) + Cc1cccc(N(C)C(=O)C2C(O)CCN2c2nc(C)cc(C(F)(F)F)c2C#N)c1 was tested. Which viability, T/C did it give?
Answer: 90.3%
